Literature values in patent publication EP4406531A1, “DOSAGE FORM FOR INTRA-ARTICULAR INJECTION […] AN […] IN THE TREATMENT OF CRYSTAL-AND NON-CRYSTAL […] IN[…]” (PK MED, priority 2023, dated 2024).

Conditions: literature (Niel et al. 2006)

COc1cc2c(c(OC)c1OC)-c1ccc(OC)c(=O)cc1[C@@H](NC(C)=O)CC2 [colchicine, N-[(7S)-1,2,3,10-tetramethoxy-9-oxo-6,7-dihydro-5H-benzo[a]heptalen-7-yl]acetamide]
lethal dose: 0.8 mg/kg
toxicity limit: 0.1 mg/kg
